Measurements published in PubChem BioAssay (NCI).
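Briefly, cells in 96-well plates were exposed to five compound concentrations for 48 h, and endpoints were estimated by linear interpolation. GI50 marks 50% less growth. TGI is the concentration that stops growth completely.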

Legend:
Test in all cases: NCI-60 cell line screen, 48 h
786-0 renal = tested on: 786-0 renal
A498 renal = tested on: A498 renal
A549 NSCLC = tested on: A549 NSCLC
ACHN renal = tested on: ACHN renal
BT-549 breast = tested on: BT-549 breast
CAKI-1 renal = tested on: CAKI-1 renal
CCRF-CEM leukemia = tested on: CCRF-CEM leukemia
COLO 205 colon = tested on: COLO 205 colon
DU-145 prostate = tested on: DU-145 prostate
EKVX NSCLC = tested on: EKVX NSCLC
HCC-2998 colon = tested on: HCC-2998 colon
HCT-116 colon = tested on: HCT-116 colon
HCT-15 colon = tested on: HCT-15 colon
HL-60(TB) leukemia = tested on: HL-60(TB) leukemia
HOP-62 NSCLC = tested on: HOP-62 NSCLC
HOP-92 NSCLC = tested on: HOP-92 NSCLC
HS 578T breast = tested on: HS 578T breast
HT29 colon = tested on: HT29 colon
IGROV1 ovarian = tested on: IGROV1 ovarian
KM12 colon = tested on: KM12 colon
LOX IMVI melanoma = tested on: LOX IMVI melanoma
M14 melanoma = tested on: M14 melanoma
MALME-3M melanoma = tested on: MALME-3M melanoma
MCF7 breast = tested on: MCF7 breast
MDA-MB-231 breast = tested on: MDA-MB-231 breast
MDA-MB-435 = tested on: MDA-MB-435
MOLT-4 leukemia = tested on: MOLT-4 leukemia
NCI-H226 lung = tested on: NCI-H226 lung

C=CC(=O)Nc1cc(N2CCN(CC)CC2)ccc1Nc1cc(N(C)C(=O)Nc2c(Cl)c(OC)cc(OC)c2Cl)ncn1 was tested, and the GI50 (786-0 renal) was 2.97 µM, the TGI (786-0 renal) was 12.1 µM and the GI50 (A498 renal) was 2.18 µM. It also gave a TGI (A498 renal) of 8.53 µM, a GI50 (A549 NSCLC) of 11.7 µM and a TGI (A549 NSCLC) of 37.6 µM. It also gave a GI50 (ACHN renal) of 11.5 µM, a TGI (ACHN renal) of 23.8 µM and a GI50 (BT-549 breast) of 3.07 µM. For the same compound, the TGI (BT-549 breast) was 15.1 µM, the GI50 (CAKI-1 renal) was 11.1 µM and the TGI (CAKI-1 renal) was 23.1 µM. It also gave a GI50 (CCRF-CEM leukemia) of 3.02 µM, a TGI (CCRF-CEM leukemia) of 11.2 µM and a GI50 (COLO 205 colon) of 4.16 µM. It also gave a TGI (COLO 205 colon) of 18.3 µM, a GI50 (DU-145 prostate) of 4.27 µM and a TGI (DU-145 prostate) of 16.4 µM. For the same compound, the GI50 (EKVX NSCLC) was 12.4 µM, the TGI (EKVX NSCLC) was 35.9 µM and the GI50 (HCC-2998 colon) was 2.49 µM. The TGI (HCC-2998 colon) was 6.3 µM, the GI50 (HCT-116 colon) was 3.37 µM and the TGI (HCT-116 colon) was 14.2 µM. It also gave a GI50 (HCT-15 colon) of 6.25 µM, a TGI (HCT-15 colon) of 21.3 µM and a GI50 (HL-60(TB) leukemia) of 4.91 µM. For the same compound, the TGI (HL-60(TB) leukemia) was 25.3 µM, the GI50 (HOP-62 NSCLC) was 11.9 µM and the TGI (HOP-62 NSCLC) was 28.8 µM. The GI50 (HOP-92 NSCLC) was 4.94 µM, the TGI (HOP-92 NSCLC) was 21.7 µM and the GI50 (HS 578T breast) was 4.77 µM. For the same compound, the TGI (HS 578T breast) was 40.8 µM, the GI50 (HT29 colon) was 2.24 µM and the TGI (HT29 colon) was 5.29 µM. For the same compound, the GI50 (IGROV1 ovarian) was 2.58 µM, the TGI (IGROV1 ovarian) was 7.35 µM and the GI50 (KM12 colon) was 3.09 µM. It also gave a TGI (KM12 colon) of 10.3 µM, a GI50 (LOX IMVI melanoma) of 2.82 µM and a TGI (LOX IMVI melanoma) of 11.9 µM. For the same compound, the GI50 (M14 melanoma) was 4.85 µM, the TGI (M14 melanoma) was 18.7 µM and the GI50 (MALME-3M melanoma) was 5.06 µM. The TGI (MALME-3M melanoma) was 19.3 µM, the GI50 (MCF7 breast) was 2.7 µM and the TGI (MCF7 breast) was 19.2 µM. The GI50 (MDA-MB-231 breast) was 3.26 µM, the TGI (MDA-MB-231 breast) was 11.5 µM and the GI50 (MDA-MB-435) was 3.47 µM. For the same compound, the TGI (MDA-MB-435) was 14.4 µM, the GI50 (MOLT-4 leukemia) was 3.01 µM and the TGI (MOLT-4 leukemia) was 13.4 µM. It also gave a GI50 (NCI-H226 lung) of 14.2 µM.
